The values below come from patent publication US8183001B2 (priority 2006, dated 2012).

Assay type in all cases: cell-based, C. elegans
In one assay the target is linker chimera (Caenorhabditis elegans, UniProt G5ECD3, N305R, form not given). The conditions noted are these: at EC50 GABA. How it is done:
(§1) Electrophysiology: Plasmids containing wild-type and mutagenized GABAA receptor subunits were linearized and transcribed in vitro using T3 RNA polymerase (mMessage mMachine T3 kit, Ambion, Austin Tex.). UNC-49B mRNA was injected into Xenopus laevis oocytes at 0.5 μg/μl either alone, or in a mixture with 0.5 μg/μl UNC-49C. […] The injection volume ranged between 27.6 nl to 50.6 nl. […] Cells were voltage clamped at −60 mV. All recordings were performed at room temperature.

Another assay has as its target X(I270L) (Caenorhabditis elegans, UniProt G5ECD3, I262F/I270L/M258L/N259Q/N305R/S264A/T257F/V261F). The conditions noted are these: at EC50 GABA. How it is done:
as §1

Another assay deals with X(I265S, Q259N) (Caenorhabditis elegans, UniProt G5ECD3, I262F/I265S/M258L/N305R/S264A/T257F/V261F). The conditions noted are these: X(I265S, Q259N); at EC50 GABA. How it is done:
as §1

A further assay concerns the target M1 chimera (Caenorhabditis elegans, UniProt G5ECD3+G5EE10). The conditions noted are these: at EC50 GABA. Here is the method: as §1
The next assay has as its target XZ chimera (Caenorhabditis elegans, UniProt G5ECD3, A281S/E280D/I262F/L277I/M258L/N259Q/N305R/S264A/S282A/T257F/V261F). The conditions noted are these: at EC50 GABA. How it is done: as §1
The target of another assay is Z chimera (Caenorhabditis elegans, UniProt G5ECD3, A281S/E280D/L277I/N259Q/N305R/S282A/V261F). The conditions noted are these: at EC50 GABA. How it is done:
as §1

Assay [1] concerns the target double chimera (M1 + linker) (Caenorhabditis elegans, UniProt G5ECD3+G5EE10). The conditions noted are these: at EC50 GABA. Here is the method: as §1
A further assay has as its target TM chimera (Caenorhabditis elegans, UniProt G5ECD3+G5EE10). The conditions noted are these: TM chimera homomer; 5 μM PS. Here is the method:
as §1

Another assay addresses X(T269V) (Caenorhabditis elegans, UniProt G5ECD3, I262F/M258L/N259Q/N305R/S264A/T257F/T269V/V261F). The conditions noted are these: at EC50 GABA. Here is the method:
as §1

Another assay concerns the target X(I265S) (Caenorhabditis elegans, UniProt G5ECD3, I262F/I265S/M258L/N259Q/N305R/S264A/T257F/V261F). The conditions noted are these: at EC50 GABA. Here is the method: as §1
The next assay deals with UNC-49B homomer (Caenorhabditis elegans, UniProt G5ECD3). The conditions noted are these: UNC-49B homomer. How it is done: as §1
The next assay has as its target Y chimera (Caenorhabditis elegans, UniProt G5ECD3, I265S/I267V/I270L/N259Q/N305R/T269V/V261F/V273I). The conditions noted are these: Y chimera; at EC50 GABA. How it is done: as §1
The target in assay [2] is QF-R (Caenorhabditis elegans, UniProt G5ECD3, N259Q/N305R/V261F). The conditions noted are these: QF-R; at EC50 GABA. How it is done: as §1
(§2) The conserved residues were tested in the UNC-49C M1 domain in a similar way. […] To test the importance of these conserved residues, they were substituted into an UNC-49B subunit with the linker mutation N305R to create the ‘QF-R’ subunit (FIG. 3c).

In assay [3] the test system is QF-R. How it is done:
as §1, §2

In assay [4] the test system is UNC-49B homomers containing the M1 mutations. Put plainly: Desensitization in oocytes. The conditions noted are these: oocytes expressing UNC-49B homomers containing the M1 mutations.
The target of another assay is T1, Y(M258L) (Caenorhabditis elegans, UniProt G5ECD3, I265S/I267V/I270L/M258L/N259Q/N305R/T269V/V261F/V273I).
T1 sequence (G5ECD3 23-506 M258L/N259Q/V261F/I265S/I267V/T269V/I270L/V273I/N305R): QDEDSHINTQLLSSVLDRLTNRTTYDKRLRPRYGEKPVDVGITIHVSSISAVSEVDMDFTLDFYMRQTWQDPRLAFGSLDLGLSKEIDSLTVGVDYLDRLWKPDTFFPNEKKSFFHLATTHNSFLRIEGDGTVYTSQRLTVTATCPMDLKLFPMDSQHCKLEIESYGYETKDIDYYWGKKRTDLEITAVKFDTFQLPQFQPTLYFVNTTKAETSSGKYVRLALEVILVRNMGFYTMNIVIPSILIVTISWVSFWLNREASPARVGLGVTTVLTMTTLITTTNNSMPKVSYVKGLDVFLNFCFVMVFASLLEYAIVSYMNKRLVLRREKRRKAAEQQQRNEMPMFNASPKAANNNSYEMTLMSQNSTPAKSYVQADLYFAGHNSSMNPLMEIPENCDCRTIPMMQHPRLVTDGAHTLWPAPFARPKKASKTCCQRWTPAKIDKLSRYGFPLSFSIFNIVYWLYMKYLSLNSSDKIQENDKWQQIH
The conditions noted are these: M258L mutant; median of 1000 bootstrap trials. Here is the method:
as §1
(§3) Error bars in the figures are standard error of the mean. All drugs were obtained from Sigma (St. Louis). […] Picrotoxin was prepared as a 100 mM stock in DMSO.
(§4) Important residues in the X segment were tested by substituting UNC-49C residues into the Y chimera. […] These divergent X segment residues were tested by mutating them from UNC-49B to UNC-49C amino acids in the Y chimera background.

The target in a further assay is T2, Y(M258L/S264A) (Caenorhabditis elegans, UniProt G5ECD3, I265S/I267V/I270L/M258L/N259Q/N305R/S264A/T269V/V261F/V273I).
T2 sequence (G5ECD3 23-506 M258L/N259Q/V261F/S264A/I265S/I267V/T269V/I270L/V273I/N305R): T1 sequence (G5ECD3 23-506 M258L/N259Q/V261F/I265S/I267V/T269V/I270L/V273I/N305R)
The conditions noted are these: M258L/S264A mutant; median of 1000 bootstrap trials. How it is done:
as §1, §3, §4

Sequence of M1 chimera (G5ECD3 entry or part of it, stated change not applied): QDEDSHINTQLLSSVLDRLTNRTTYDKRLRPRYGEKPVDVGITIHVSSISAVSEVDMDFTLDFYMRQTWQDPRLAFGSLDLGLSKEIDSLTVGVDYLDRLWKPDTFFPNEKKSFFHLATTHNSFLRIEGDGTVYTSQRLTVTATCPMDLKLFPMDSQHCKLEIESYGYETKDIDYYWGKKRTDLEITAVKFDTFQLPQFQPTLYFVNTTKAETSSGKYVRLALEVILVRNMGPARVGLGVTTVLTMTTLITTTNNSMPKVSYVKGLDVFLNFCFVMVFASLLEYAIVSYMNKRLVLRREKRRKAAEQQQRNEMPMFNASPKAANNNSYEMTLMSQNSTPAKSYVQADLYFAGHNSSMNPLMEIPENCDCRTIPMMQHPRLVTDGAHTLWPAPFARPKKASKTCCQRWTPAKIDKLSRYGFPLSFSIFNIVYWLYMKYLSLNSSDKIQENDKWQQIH
Sequence of M1 chimera (G5EE10 256-283, stated change not applied): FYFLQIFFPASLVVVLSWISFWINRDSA
Sequence of TM chimera (G5EE10 256-448, change not shown, one chain of several): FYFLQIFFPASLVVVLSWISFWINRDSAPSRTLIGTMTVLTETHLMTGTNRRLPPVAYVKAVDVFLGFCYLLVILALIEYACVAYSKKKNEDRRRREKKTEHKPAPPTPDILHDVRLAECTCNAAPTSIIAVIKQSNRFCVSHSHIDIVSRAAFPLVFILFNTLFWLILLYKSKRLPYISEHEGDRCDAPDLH
Sequence of double chimera (M1 + linker) (G5EE10 entry or part of it, change not shown, one chain of several): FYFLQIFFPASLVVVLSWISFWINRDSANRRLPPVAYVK

With pregnenolone sulfate [PS], the “PS Slope coefficient” value on linker chimera was 1.3 ± 0.2 (n = 5); on X(I270L), 1.5 ± 0.1; at X(I265S, Q259N), 0.9 ± 0.0; on M1 chimera, 0.9 ± 0.1 (n = 4); at XZ chimera, 1.1 ± .06; at Z chimera it was 1.05 ± 0.03. Besides, the “PS Slope coefficient” value in assay [1] is 1.4 ± 0.1 (n = 4); at X(T269V), 1.2 ± 0.1; at X(I265S), 1.1 ± 0.1; at UNC-49B homomer (at EC50 GABA), 0.7; on Y chimera, 10.4 ± 1.3; at QF-R [2] it was 1.5 ± 0.5 (n = 6). On TM chimera, the PS inhibition result is given as “strongly inhibited”. In addition, at UNC-49B homomer (100 μM PS, EC50 GABA), the “inhibition of GABA-evoked current” value is on record as 40%. The “fold more sensitive to PS than N305R” value in the assay with QF-R [3] (QF-R versus N305R) was 2.1 fold. The “fold less sensitive to PS than the double chimera” value in the assay with QF-R [3] (QF-R versus double chimera) is given as 6.7 fold. Also, the “effect of PS on desensitization” value in assay [4] is on record as “accelerated desensitization”. In addition, the figures for the “A, amplitude of normalized current above 1 (biphasic fit)” value on Y(M258L) and on Y(M258L/S264A) were 1.56 and 1.0, respectively. Besides, the “nE, slope coefficient for the enhancement” value at Y(M258L) was 1.0; on Y(M258L/S264A), 1.3. For the same substance, the “nI, slope coefficient for the inhibition” value on Y(M258L) is given as 1.8; at Y(M258L/S264A), 1 .9.
